From patent publication US20230212163A1, “2-(HET)ARYL-SUBSTITUTED CONDENSED HETEROCYCLIC DERIVATIVES AS PEST CONTROL AGENTS” (Bayer Aktiengesellschaft, priority 2020, published 2023)

What was measured:
Assay type in all cases: in vivo
Spodoptera frugiperda = Spodoptera frugiperda spray test (maize leaf discs); settings: application rate 100 g/ha, after 7 days; for pest or weed control at 100 g/ha: Spodoptera frugiperda, foliar, 168 h
Description: [table] To produce a suitable active compound formulation, 1 part by weight of active compound is dissolved using the stated parts by weight of solvent and made up with water containing an emulsifier concentration of 1000 ppm until the desired concentration is attained. To produce further test concentrations, the formulation is diluted with emulsifier-containing water. Leaf discs of maize (Zea mays) are sprayed with an active compound formulation of the desired concentration and, after drying, populated with caterpillars of the fall armyworm (Spodoptera frugiperda). After 7 days, the efficacy in % is determined. 100% means that all the caterpillars have been killed; 0% means that no caterpillar has been killed.

Diabrotica balteata = Diabrotica balteata spray test; settings: after 7 days; for pest or weed control at 500 g/ha: application rate 500 g/ha (=160 μg/cavity); for pest or weed control at 20 g/ha: application rate 20 g/ha
Description: [table] To produce a suitable active compound formulation, 1 part by weight of active compound is dissolved using the stated parts by weight of solvent and made up with water containing an emulsifier concentration of 1000 ppm until the desired concentration is attained. To produce further test concentrations, the formulation is diluted with emulsifier-containing water. Pre-swollen wheat grains (Triticum aestivum) are incubated in a multiwell plate filled with agar and a little water for one day (5 seed grains per cavity). The germinated wheat grains are sprayed with an active compound formulation of the desired concentration. Subsequently, each cavity is infected with 10-20 beetle larvae of Diabrotica balteata. After 7 days, the efficacy in % is determined. 100% means that all wheat plants have grown as in the untreated, uninfected control; 0% means that no wheat plant has grown.

Nezara viridula = Nezara viridula spray test; settings: application rate 500 g/ha, after 4 days; for pest or weed control at 500 g/ha: Nezara viridula, 96 h
Description: [table] To produce a suitable active compound formulation, 1 part by weight of active compound is dissolved using the stated parts by weight of solvent and made up with water containing an emulsifier concentration of 1000 ppm until the desired concentration is attained. To produce further test concentrations, the formulation is diluted with emulsifier-containing water. Barley plants (Hordeum vulgare) are sprayed with an active compound formulation of the desired concentration and are infected with larvae of the Southern green shield bug (Nezara viridula). After 4 days, the efficacy in % is determined. 100% means that all of the shield bugs have been killed; 0% means that none of the shield bugs have been killed.

[1] = Diabrotica balteata, 168 h, read-out: efficacy
[2] = Diabrotica balteata, 168 h, application rate 100 g/ha

| Compound | pest or weed control at 100 g/ha (Spodoptera frugiperda) | pest or weed control at 20 g/ha (Diabrotica balteata; Diabrotica balteata, 168 h) | pest or weed control at 100 g/ha (Diabrotica balteata; [2]) | further results |
| --- | --- | --- | --- | --- |
| CCS(=O)(=O)c1ccc(-n2ncn(-c3ccc(F)cc3)c2=O)nc1-c1nc2cc(S(=O)(=O)C(F)(F)Cl)ccc2o1 [Example I-07] | 100% |  |  | pest or weed control at 31.25 g/ha (Diabrotica balteata; Diabrotica balteata, 168 h, application rate 31.25 g/ha (=10 μg/cavity), read-out: efficacy): 100%; pest or weed control at 125 g/ha (Diabrotica balteata; Diabrotica balteata, 168 h, application rate 125 g/ha (=40 μg/cavity), read-out: efficacy): 100%; pest or weed control at 500 g/ha (Diabrotica balteata; [1]): 100% |
| CCS(=O)(=O)c1ccc(-n2ncn(-c3ccc(Cl)cc3)c2=O)nc1-c1nc2cc(S(=O)(=O)C(F)(F)Cl)ccc2o1 [Example I-08] | 100% | 100% | 80% | pest or weed control at 500 g/ha (Diabrotica balteata; [1]): 100% |
| CCS(=O)(=O)c1ccc(-n2ncn(-c3ccc(Br)cc3)c2=O)nc1-c1nc2cc(S(=O)(=O)C(F)(F)Cl)ccc2o1 [Example I-09] | 100% | 80% |  |  |
| CCS(=O)(=O)c1ccc(-n2ncn(-c3ccc(C#N)cc3)c2=O)nc1-c1nc2cc(S(=O)(=O)C(F)(F)Cl)ccc2o1 [Example I-10] |  | 80% | 100% | pest or weed control at 500 g/ha (Diabrotica balteata; [1]): 100% |
| CCS(=O)(=O)c1ccc(-n2ncn(-c3ccc(I)cc3)c2=O)nc1-c1nc2cc(S(=O)(=O)C(F)(F)Cl)ccc2o1 [Example I-11] | 100% |  | 100% | pest or weed control at 500 g/ha (Diabrotica balteata; [1]): 100% |
| CCS(=O)(=O)c1ccc(-n2ncn(-c3ccc(I)cc3)c2=O)nc1-c1nc2cc(S(=O)(=O)C(F)(F)F)ccc2o1 [Example I-12] | 100% | 100% | 100% | pest or weed control at 500 g/ha (Diabrotica balteata; [1]): 100% |
| CCS(=O)(=O)c1ccc(-n2ncn(-c3cccc(Cl)c3)c2=O)nc1-c1nc2cc(S(=O)(=O)C(F)(F)F)ccc2o1 [Example I-13] | 100% | 100% | 100% | pest or weed control at 500 g/ha (Diabrotica balteata; [1]): 100% |
| CCS(=O)(=O)c1ccc(-n2ncn(-c3cccc(Br)c3)c2=O)nc1-c1nc2cc(S(=O)(=O)C(F)(F)F)ccc2o1 [Example I-15] | 100% | 100% | 100% | pest or weed control at 500 g/ha (Diabrotica balteata; [1]): 100% |
| CCS(=O)(=O)c1ccc(-n2ncn(-c3ccc(C4(C#N)CC4)cc3)c2=O)nc1-c1nc2cc(S(=O)(=O)C(F)(F)F)ccc2o1 [Example I-17] |  | 100% | 100% | pest or weed control at 500 g/ha (Diabrotica balteata; [1]): 100% |
| CCS(=O)(=O)c1ccc(-n2ncn(-c3ccc(Cl)c(Br)c3)c2=O)nc1-c1nc2cc(S(=O)(=O)C(F)(F)F)ccc2o1 [Example I-19] | 100% | 100% | 100% |  |
| CCS(=O)(=O)c1ccc(-n2ncn(-c3ccc(Br)c(Cl)c3)c2=O)nc1-c1nc2cc(S(=O)(=O)C(F)(F)F)ccc2o1 [Example I-20] | 100% | 100% | 100% |  |
| CCS(=O)(=O)c1ccc(-n2ncn(-c3ccc(Cl)cc3)c2=O)nc1-c1nc2cc(OC(F)(F)C(F)(F)F)ccc2o1 [Example I-21] | 100% |  | 100% |  |
| CCS(=O)(=O)c1ccc(-n2ncn(-c3ccc(F)cc3)c2=O)nc1-c1nc2cc(OC(F)(F)C(F)(F)F)ccc2o1 [Example I-22] | 100% | 100% | 100% |  |
| CCS(=O)(=O)c1ccc(-n2ncn(-c3ccc(Br)cc3)c2=O)nc1-c1nc2cc(OC(F)(F)C(F)(F)F)ccc2o1 [Example I-23] | 100% |  | 100% |  |
| CCS(=O)(=O)c1ccc(-n2ncn(-c3cccc(F)c3)c2=O)nc1-c1nc2cc(OC(F)(F)C(F)(F)F)ccc2o1 [Example I-24] | 100% | 100% | 100% |  |
| CCS(=O)(=O)c1ccc(-n2ncn(-c3cccc(Cl)c3)c2=O)nc1-c1nc2cc(OC(F)(F)C(F)(F)F)ccc2o1 [Example I-25] | 100% | 100% | 100% |  |
| CCS(=O)(=O)c1ccc(-n2ncn(-c3cccc(Br)c3)c2=O)nc1-c1nc2cc(OC(F)(F)C(F)(F)F)ccc2o1 [Example I-26] | 100% | 100% | 100% |  |
| CCS(=O)(=O)c1ccc(-n2ncn(-c3ccc(C#N)c(Cl)c3)c2=O)nc1-c1nc2cc(S(=O)(=O)C(F)(F)F)ccc2o1 [Example I-28] | 100% | 100% |  |  |

| Compound | pest or weed control at 100 g/ha (Spodoptera frugiperda) | pest or weed control at 20 g/ha (Diabrotica balteata; Diabrotica balteata, 168 h) | pest or weed control at 100 g/ha (Diabrotica balteata; [2]) | further results |
| --- | --- | --- | --- | --- |
| CCS(=O)(=O)c1ccc(-n2ncn(-c3cccc(C#N)c3)c2=O)nc1-c1nc2cc(OC(F)(F)C(F)(F)F)ccc2o1 [Example I-30] | 100% | 100% | 100% |  |
| CCS(=O)(=O)c1ccc(-n2ncn(-c3cccc(C4(C#N)CC4)c3)c2=O)nc1-c1nc2cc(OC(F)(F)C(F)(F)F)ccc2o1 [Example I-31] | 100% | 100% |  |  |
| CCS(=O)(=O)c1ccc(-n2ncn(-c3ccc(F)cc3)c2=O)nc1-c1nc2cc(OC(F)(F)F)ccc2o1 [Example I-33] |  |  |  | pest or weed control at 500 g/ha (Nezara viridula): 100% |
| CCS(=O)(=O)c1ccc(-n2ncn(-c3ccc(F)cc3)c2=O)nc1-c1nc2cc(C(F)(F)F)ncc2o1 [Example I-35] |  |  |  | pest or weed control at 500 g/ha (Nezara viridula): 100% |
| CCS(=O)(=O)c1ccc(-n2ncn(-c3ccc(F)cc3)c2=O)nc1-c1nc2cc(C(F)(F)F)ccc2o1 [Example I-36] |  |  |  | pest or weed control at 500 g/ha (Nezara viridula): 100% |
| CCS(=O)(=O)c1ccc(-n2ncn(C3CCCC3)c2=O)nc1-c1nc2cc(C(F)(F)C(F)(F)F)ccc2o1 [Example I-38] | 100% |  |  |  |
| CCS(=O)(=O)c1ccc(-n2ncn(C3CC3C(F)(F)F)c2=O)nc1-c1nc2cc(S(=O)(=O)C(F)(F)F)ccc2o1 (centres unmarked) [Example I-39] | 100% |  | 100% | pest or weed control at 500 g/ha (Nezara viridula): 100% |
| CCS(=O)(=O)c1ccc(-n2ncn(-c3cncc(F)c3)c2=O)nc1-c1nc2cc(S(=O)(=O)C(F)(F)F)ccc2o1 [Example I-40] | 100% |  | 100% |  |
| CCS(=O)(=O)c1ccc(-n2ncn(-c3cccc(Cl)c3)c2=O)nc1-c1nc2cc(S(=O)(=O)C(F)(F)C(F)(F)F)ccc2o1 [Example I-41] | 100% | 100% | 100% | pest or weed control at 500 g/ha (Nezara viridula): 100% |
| CCS(=O)(=O)c1ccc(-n2ncn(-c3cccc(Cl)c3)c2=O)nc1-c1nc2cc(S(=O)(=O)C(F)(F)C(F)(F)F)ccc2o1 [Example I-42] |  |  |  | activity (Spodoptera frugiperda): 100%; activity (Diabrotica balteata; application rate 100 g/ha): 80%; activity (Nezara viridula): 90% |
| CCS(=O)(=O)c1ccc(-n2ncn(-c3cccc(Br)c3)c2=O)nc1-c1nc2cc(C(F)(F)C(F)(F)F)ccc2o1 [Example I-44] | 100% | 80% | 100% | pest or weed control at 500 g/ha (Nezara viridula): 100% |
| CCS(=O)(=O)c1ccc(-n2ncn(-c3ccc(Br)cc3)c2=O)nc1-c1nc2cc(C(F)(F)C(F)(F)F)ccc2o1 [Example I-48] | 100% |  | 100% |  |
| CCS(=O)(=O)c1ccc(-n2ncn(C3CC3)c2=O)nc1-c1nc2cc(OC(F)(F)C(F)(F)F)ccc2o1 [Example I-49] | 100% | 100% | 80% |  |
| CCS(=O)(=O)c1ccc(-n2ncn(C3CC3)c2=O)nc1-c1nc2cc(C(F)(F)C(F)(F)F)ccc2o1 [Example I-50] | 100% | 100% | 100% |  |
| CCS(=O)(=O)c1ccc(-n2ncn(-c3ccc(Cl)cc3)c2=O)cc1-c1nc2cc(Br)ccc2o1 [Example I-53] | 100% |  | 100% |  |
| CCS(=O)(=O)c1ccc(-n2ccn(-c3cccc(C4(C#N)CC4)c3)c2=O)nc1-c1nc2cc(C(F)(F)C(F)(F)F)ccc2o1 [Example I-54] | 100% | 100% | 100% |  |
| CCS(=O)(=O)c1ccc(-n2ncn(-c3ccc(F)cn3)c2=O)nc1-c1nc2cc(S(=O)(=O)C(F)(F)F)ccc2o1 [Example I-55] | 100% |  | 100% |  |
